{
  "source": "patent US20210017607A1",
  "about": "“Methods of Predicting Responsiveness to Cancer Therapies” (The University of Chicago, priority 2019, published 2021)",
  "key": {"[1]": {"tested_on": "bone marrow derived macrophages (BMDMs)", "test": "IFNβ1 ELISA of supernatants after DMXAA treatment", "assay_type": "cell-based, mouse", "settings": "36 hours", "experimental": "FIGS. 15A-15E. Differential STING pathway activation within B6-Myc (STING^hi) cell lines and BMDMs relative to Myc-CAP (STING^lo) cells. (15A, 15B) The indicated cancer cell lines and BMDMs were treated with DMXAA (mouse STING agonist) for 1 and 24 hours, respectively, and protein extracts were interrogated for cGAS/STING pathway activation with the indicated antibodies by Western blotting. Supernatants were collected from for IFNβ1 ELISA following 36 hours of treatment with DMXAA (15C, 15D). (15E) Syngeneic Myc-CAP (STING^lo) tumors were processed into single cell suspensions and used for phycoerythrin-based sorting of CD45+ cellular fractions. Equal numbers of cells from these fractions were stimulated with DMXAA. Supernatants were collected at 36 hrs for detection of IFNB1 by ELISA; n=3 independent experiments; Significance/p-values were calculated by one-way Anova (for 15C & 15E) or paired t-test (for 15D); TAM=tumor associated macrophage; s.e.=short exposure; l.e.=long exposure.\nGeneration of BMDMs. Bone marrow derived macrophages were differentiated as previously described. […]"}, "[2]": {"tested_on": "Myc-CAP tumors with Intermediate tumor cell intrinsic levels of STING", "test": "Survival of mice bearing STING-overexpressing Myc-CAP tumors", "assay_type": "in vivo, mouse", "settings": "DMXAA single intra-tumoral dose", "experimental": "FIG. 52. STING agonist treatment is protective to mice bearing Myc-CAP tumors with Intermediate (not high) tumor cell intrinsic levels of STING. Syngeneic mice bearing Myc-CAP wild-type (WT) and STING overexpressed (STING OE; clone 34) or STING intermediate (STING OE; clone 35) tumors (200 mm^3) were treated with DMXAA ([…] intra-tumoral dose). Tumors were monitored until cut-off tumor volume of 2500 mm^3, and Kaplan Meier curves were plotted. n=3 mice per cohort."}, "Myc-CAP (STING^lo) cells": {"tested_on": "Myc-CAP (STING^lo) cells", "test": "p-γH2AX foci (DNA DSBs) by confocal microscopy", "assay_type": "cell-based, mouse", "excerpt": "FIGS. 29A-29M. PARPi alone induces DNA DSBs, but not apoptosis even in combination with PI3Ki in Myc-CAP (STING^lo) cancer cells; PARPi/PI3Ki combination induces intracellular DNA DSBs and proportionate release of MV surface-associated DNA DSBs from B6-Myc (STINGhi) cancer cells without affecting cellular viability; PARPi/PI3K treatment activates tumor-cell extrinsic cGAS/STING pathway within TAMs in vivo via MV surface-associated DNA DSBs released from tumor cells. Myc-CAP cancer cells were treated with the indicated drugs singly or in combination for 36 hours. (29A) Cells were stained with anti-mouse specific p-γH2AX antibody and a fluorescently labeled secondary antibody for determination of DNA DSBs, which were quantified by confocal microscopy. (29B) Protein extracts from cells in 29A were analyzed for the indicated pharmacodynamic biomarkers by western blotting; (29C) Annexin V-PI staining was done to assess frequency of live cells (Annexin V^− PI^−) following drug treatment. (29D) Ultracentrifugation was utilized to purify microvesicles (MVs) from supernatants in treatment groups in (29A) and associated DNA DSBs was quantified by Nanodrop®. Independent experiments n=2. (29E) Ultracentrifugation was utilized to purify MVs from supernatants in indicated treatment groups in FIG. 17A, and associated DNA DSBs were quantified by Nanodrop®; n=2 independent experiments. […]"}},
  "data": [
    {"molecule": "Cc1ccc2c(=O)c3cccc(CC(=O)O)c3oc2c1C", "note": "[DMXAA, 5,6-Dimethylxanthenone-4-acetic Acid]", "values": [
      {"measurement": "fold induction in IFN-β levels", "setting": "[1]", "value": 46.4, "unit": "fold"},
      {"measurement": "survival (Kaplan Meier)", "setting": "[2]", "value": "protective"}
    ]},
    {"molecule": "CNCc1ccc(-c2[nH]c3cc(F)cc4c3c2CCNC4=O)cc1", "note": "[rucaparib]", "values": [
      {"measurement": "DNA DSBs (number of p-γH2AX foci)", "setting": "Myc-CAP (STING^lo) cells; 36 hours", "value": "increase in DNA DSBs"}
    ]},
    {"molecule": "Nc1cc(C(F)(F)F)c(-c2cc(N3CCOCC3)nc(N3CCOCC3)n2)cn1", "note": "[buparlisib]", "values": [
      {"measurement": "DNA damage on addition to rucaparib, relative to rucaparib alone", "setting": "Myc-CAP (STING^lo) cells", "value": "did not further increase DNA damage"}
    ]}
  ]
}
